According to publication PMC5090206, “Fluselenamyl: A Novel Benzoselenazole Derivative for PET Detection of Amyloid Plaques (Aβ) in Alzheimer’s Disease” (Scientific Reports, 2016):

What was measured:
[1] = biological target: T1, Aβ plaques (Homo sapiens, UniProt P05067); assay: Histological staining of human AD brain tissue sections
Experimental: To further assess ability of the 5 to label Aβ plaques in human brain, staining experiments were also performed with postmortem tissues from clinically-characterized AD patients[35][36] As a positive control, a highly specific anti-Aβ antibody (10D5, Eli Lilly, Indianapolis, IN) was used to ascertain the presence of Aβ plaques (Fig. 4A), using well-established procedures for assessment of Aβ plaques in postmortem brain[37]. […] Noticeably, 5 also indicated proficient and distinct labeling of plaque and leptomeningeal vessels (cerebral amyloid angiopathy; CAA) (Fig. 4B). […] This high specificity of 5 for Aβ could be attributed to presence of a benzoselenazole ring within Fluselenamyl. Overall, the ability and sensitivity of 5 to detect diffuse plaques and specificity for AD could represent an important advancement to enable PET imaging of mildly demented individuals, prior to onset of symptoms.
(§1) Scientific Reports Version of August 4, 2016
(§2) µm) were cut in the coronal plane on a freezing sliding microtome and stored at -20°C. 7,8 Tissue was stained as free-floating sections. Prior to staining, tissue sections were permeabilized with PBS-Tritron-X-100 (0.25%) for 30 minutes, and then blocked with 1% non-fat dry milk in PBS-Ttiton-X-100 for 60 minutes.
Hippocampus tissue sections of APP+/-/PS1+/- and age-matched control BL/6 (WT, SI Figure 3) were incubated with fluorescent molecule 5 (100 nM dissolved in 1% ethanol in PBS) for 60 minutes, and washed 3-times with PBS-Triton-X-100.9 Thereafter, tissue sections were incubated with mouse-anti-Aβ (mHJ3.4) 7 that was directly conjugated to Alexa 568 for 90 minutes and washed 3-times with PBS-Triton-X-100.
Tissue sections were mounted onto SuperFrost Plus slides, dried overnight at room temperature, and then sealed with Fluoromount G (Southern Biotech, Birmingham, AL). […]
other neurodegenerative diseases (SI, Figure 4A & 4B). Sections were visualized, processed, and analyzed using a Pascal confocal microscope. […]

[2] = biological target: T1, Aβ plaques; assay: Histochemical staining of mouse brain hippocampus sections; set-up: species or system mice; conditions: 10 months old
Text: Aβ imaging ligands and disease-modifying therapeutics have been investigated using APP^+/−/PS1^+/− transgenic mice models. Further, we assessed the ability of 5 to stain ex vivo brain sections (50 μm) of age-matched APP^+/−/PS1^+/− mice and their WT (BL/6) counterparts, using established procedures. As a positive control, anti-Aβ monoclonal antibody (mHJ3.4 conjugated to Alexa Fluor 568) was used[34]. […] By comparison, 5 indicated no staining in 10 months old WT mice (SI, Fig. 3) thus indicating its target specificity.
as §1, §2
Hippocampus tissue sections of APP+/-/PS1+/- and age-matched control BL/6 (WT, SI Figure 3) were incubated with fluorescent molecule 5 (100 nM dissolved in 1% ethanol in PBS) for 60 minutes, and washed 3-times with PBS-Triton-X-100.9 Thereafter, tissue sections were incubated with mouse-anti-Aβ (mHJ3.4) 7 that was directly conjugated to Alexa 568 for 90 minutes and washed 3-times with PBS-Triton-X-100. […]

T1 sequence (P05067 672-711 limits assumed): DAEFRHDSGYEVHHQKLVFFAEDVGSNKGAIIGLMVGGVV

For `CN(C)c1ncc(/C=C\c2nc3cc(OCCF)ccc3[se]2)cn1` [compound 5, (Z)-5-(2-(5-(2-fluoroethoxy)benzo[d][1,3]selenazol-2-yl)vinyl)-N,N-dimethylpyrimidin-2-amine], the “labeling of Aβ plaques in frontal lobe tissue sections” value ([1]; 2 μM, person with AD) was “strikingly distinct labeling of Aβ plaques”, the “staining of diffuse plaques” value ([1]; AD frontal lobe sections) was “labeling of numerous diffuse Aβ plaques” and the “staining of Aβ plaques in hippocampus brain sections” value ([2]; 100 nM, APP+/−/PS1+/− mice) was “abundant staining of Aβ plaques”. The “staining of brain sections” value ([2]; WT mice) was “no staining”.
